“Also recorded” adds a separate entry of the source.
What was measured:
ACT-mRNA = assay: Northern blot of ACT-mRNA, astrocytoma cells; type: cell-based, human; conditions: astrocytoma cells, 16 hours of IL-1 stimulation, 48 hours blot exposure
Experimental: Total RNA (10 μg) was extracted from primary astrocytes and astrocytoma cells with a RNA-STAT kit (Tel-Test). RNA samples were denatured in 50% formamide/2.2 M formaldehyde/20 mM MOPS/5 mM sodium acetate/0.5 mM EDTA, pH 7.4, at 60° C. for 10 minutes, electrophoresed on 1.0% agarose-formaldehyde gels, blotted onto Hybond-N filters and immobilized by UV crosslinking and heating filters to 80° C. Filters were prehybridized for 3 hours and hybridized overnight in a solution consisting of 50% formamide, […] denatured salmon sperm DNA, 5×SSC, 0.1% sodium dodecyl sulfate and 5×Denhardt's solution. Following hybridization, filters were washed twice for a total of 1 hour in 2×SSC/0.2% sodium dodecyl sulfate at room temperature and twice each for a total of 1 hour in 0.5×SSC/0.1% sodium dodecyl sulfate at 55° C. Equal loading was verified by ethidium bromide staining, non-specific hybridization of the ACT probe to the 28S rRNA, and by standardized hybridization to the GAPDH cDNA probe as an internal standard. The APP cDNA probe corresponded to the unique internal 1 kb fragment gel purified from the 3 kb APP cDNA (Kang et al. Nature 325: 733 (1987)), the ACT cRNA probe to a PstI/SacI fragment (536-943) in the human ACT cDNA (Chandra, et al., Biochemistry 22: 5055 (1983)) and the GAPDH probe to the human GAPDH gene (Tokunaga, et al., Cancer Res. 47: 5616 (1987)).

[1] = system: APP protein at the site of the lesion; conditions: injected into rat cerebral cortex; cited from earlier work
[2] = system: H-ferritin subunit synthesis; assay: H-ferritin subunit synthesis, [35S]-methionine labeling and immunoprecipitation, primary astrocytes; type: cell-based; conditions: primary human fetal astrocytes, 0.5 ng/ml, 16 hours
[3] = system: L-ferritin subunit synthesis; assay: L-ferritin subunit synthesis, [35S]-methionine labeling and immunoprecipitation, primary astrocytes; type: cell-based; conditions: primary human fetal astrocytes, 0.5 ng/ml, 16 hours

## interleukin-1 [IL-1]
ACT-mRNA
  induction in steady-state levels of ACT-mRNA: 6 fold
[1]
  steady-state levels of APP protein at the site of the lesion: increase the steady-state level of APP-protein; also recorded: increases the steady-state levels of APP protein
[2]
  up regulation in H-ferritin subunit synthesis: 4 fold
[3]
  up regulation in L-ferritin subunit synthesis: 25%

Reference: patent US6849405B2, “Translation enhancer element of the human amyloid precursor protein gene” (The Brigham and Women's Hospital, Inc., priority 1997, dated 2005)
